These results are taken from ChEMBL document CHEMBL1128134, “Characterization of a continuous fluorogenic assay for calpain I. Kinetic evaluation of peptide aldehydes, halomethyl ketones and (acyloxy)methyl ketones as inhibitors of the enzyme” (Bioorg Med Chem Lett, 1995).

One data set concerns the target Calpain 1 (Homo sapiens) (UniProt P04632+P07384). Description: Apparent second order rate constant for inhibition of calpain-1 by fluorogenic assay. It counts as protein-complex assay.
Data set [1] deals with T1, Calpain-1 catalytic subunit (Homo sapiens) (UniProt P07384).
T1 sequence (whole entry): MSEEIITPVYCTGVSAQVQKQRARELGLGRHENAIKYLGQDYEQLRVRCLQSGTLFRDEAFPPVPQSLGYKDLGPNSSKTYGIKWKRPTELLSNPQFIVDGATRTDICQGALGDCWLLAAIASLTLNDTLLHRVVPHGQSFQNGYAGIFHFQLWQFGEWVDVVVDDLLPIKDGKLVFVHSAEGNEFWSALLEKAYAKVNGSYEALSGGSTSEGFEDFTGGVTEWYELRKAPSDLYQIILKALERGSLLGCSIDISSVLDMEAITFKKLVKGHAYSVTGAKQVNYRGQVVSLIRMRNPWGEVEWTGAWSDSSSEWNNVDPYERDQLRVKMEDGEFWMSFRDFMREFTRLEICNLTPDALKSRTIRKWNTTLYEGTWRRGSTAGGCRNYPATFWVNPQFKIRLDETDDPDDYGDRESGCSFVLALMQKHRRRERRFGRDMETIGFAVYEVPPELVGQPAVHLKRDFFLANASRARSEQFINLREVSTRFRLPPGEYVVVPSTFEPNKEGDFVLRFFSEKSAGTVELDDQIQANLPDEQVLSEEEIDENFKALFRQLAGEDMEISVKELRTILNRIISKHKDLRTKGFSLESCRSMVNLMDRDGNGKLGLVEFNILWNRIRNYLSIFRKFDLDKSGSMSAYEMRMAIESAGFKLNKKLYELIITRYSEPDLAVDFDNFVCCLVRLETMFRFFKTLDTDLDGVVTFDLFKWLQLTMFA
Description: Compound was tested for apparent second order rate constant for inhibition of calpain I in an endpoint (non-continuous) calpain assay.

The nature of data set [2]: Ratio of rate of catalysis to Michaelis-Menten constant was determined.
Data set [3] has as its target T1, Calpain-1 catalytic subunit (Homo sapiens). The data set can be described thus: Rate of catalysis as a measure of ability to serve as substrate of Calpain.
The target in a further data set is Calpain 1 (Homo sapiens, UniProt P07384). Description: Inhibition of Calpain 1 by [3H]acetyl-casein assay. It counts as protein-complex assay.
Substrate in data set [4]: COc1ccc2cccc(NC(=O)[C@@H](CCCN=C(N)N)NC(=O)[C@H](CC(C)C)NC(=O)[C@@H](NC(=O)OCc3ccccc3)C(C)C)c2c1
The data set can be described thus: (§1) Michaelis-Menten kinetics value as a measure of ability to serve as substrate of Calpain.

Substrate in data set [5]: Cc1cc(=O)oc2cc(NC(=O)[C@H](CCCN=C(N)N)NC(=O)[C@H](CC(C)C)NC(=O)OCc3ccccc3)ccc12
The data set is described as §1.

Substrate in data set [6]: Cc1cc(=O)oc2cc(NC(=O)[C@@H](Cc3ccc(O)cc3)NC(=O)[C@H](NC(=O)[C@H](CC(C)C)NC(=O)[C@H](CC(C)C)NC(=O)CCC(=O)O)C(C)C)ccc12
Described as §1.

Substrate in data set [7]: COc1ccc2cccc(NC(=O)[C@H](CCCN=C(N)N)NC(=O)[C@H](CC(C)C)NC(=O)OCc3ccccc3)c2c1
The description is as §1.

Substrate in data set [8]: Cc1cc(=O)oc2cc(NC(=O)[C@@H](CCCCN)NC(=O)[C@H](CC(C)C)NC(=O)[C@@H](NC(=O)OC(C)(C)C)C(C)C)ccc12
Described as §1.

Substrate in data set [9]: CC(C)C[C@H](NC(=O)OCc1ccccc1)C(=O)N[C@@H](CCCN=C(N)N)C(=O)Nc1ccc2c(C(F)(F)F)cc(=O)oc2c1
Described as §1.

Substrate in data set [10]: Cc1cc(=O)oc2cc(NC(=O)[C@H](NC(=O)[C@H](CC(C)C)NC(=O)[C@H](CC(C)C)NC(=O)CCC(=O)O)C(C)C)ccc12
The description is as §1.

Square brackets hold non-standard residues; d marks the D form. Peptide text beside a SMILES is read from it. * marks the point of attachment. ξ: configuration not given here. 1Nal = N[C@@H](Cc1cccc2ccccc12)C(=O)O; hPhe = N[C@@H](CCc1ccccc1)C(=O)O; tBuAla = CC(C)(C)C[C@H](N)C(=O)O; Ile(3ξ) = CCC(C)[C@H](N)C(=O)O; ξTle = CC(C)(C)C(N)C(=O)O; Cbz = O=C(OCc1ccccc1)*

Calpain 1, sequence (P04632 whole entry, one chain of several): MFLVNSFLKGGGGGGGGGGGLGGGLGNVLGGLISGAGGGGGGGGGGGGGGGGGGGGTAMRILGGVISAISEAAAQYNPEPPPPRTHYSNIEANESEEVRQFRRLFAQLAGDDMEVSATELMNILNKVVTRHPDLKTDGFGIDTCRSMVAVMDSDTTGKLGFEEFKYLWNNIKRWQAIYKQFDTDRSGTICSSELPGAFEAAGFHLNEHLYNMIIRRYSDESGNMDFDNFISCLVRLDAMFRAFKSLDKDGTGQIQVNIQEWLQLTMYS

`CC(C)C[C@H](NC(=O)[C@H]1O[C@@H]1C(=O)O)C(=O)NCCCCN=C(N)N`: the k obs / 1 came to 2500 M⁻¹ s⁻¹ at Calpain 1 (Homo sapiens) and 7500 M⁻¹ s⁻¹ in data set [1].

Consider `CC(C)C[C@H](NC(=O)OCc1ccccc1)C(=O)N[C@@H](CCCN=C(N)N)C(=O)Nc1ccc2c(C(F)(F)F)cc(=O)oc2c1`, for which, in data set [2], the Ratio stood at 153 M⁻¹ s⁻¹. In addition, the k cat in [3] turned out to be 0.07 s⁻¹.

With `Cc1cc(=O)oc2cc(NC(=O)[C@@H](CCCCN)NC(=O)[C@H](CC(C)C)NC(=O)[C@@H](NC(=O)OC(C)(C)C)C(C)C)ccc12`, the Ratio in data set [2] came to 83 M⁻¹ s⁻¹. The same molecule showed a k cat in data set [3] of 0.49 s⁻¹.

Consider `Cc1cc(=O)oc2cc(NC(=O)[C@H](NC(=O)[C@H](CC(C)C)NC(=O)[C@H](CC(C)C)NC(=O)CCC(=O)O)C(C)C)ccc12`, for which the Ratio in data set [2] stood at 141 M⁻¹ s⁻¹. Also, the k cat in data set [3] amounted to 0.29 s⁻¹.

Turning to `CC(C)[C@H](NC(=O)OCc1ccccc1)C(=O)N1CCC[C@H]1C=O` (Cbz-Val-Pro-aldehyde), at Calpain 1, the half-maximal inhibitory concentration (IC50) (in general, the point on the concentration scale where inhibition reaches its midpoint) was above 1000 nM.

`Cc1cc(=O)oc2cc(NC(=O)[C@@H](Cc3ccc(O)cc3)NC(=O)[C@H](NC(=O)[C@H](CC(C)C)NC(=O)[C@H](CC(C)C)NC(=O)CCC(=O)O)C(C)C)ccc12`: in data set [2], the Ratio amounted to 262 M⁻¹ s⁻¹. Also, the k cat in [3] was 0.42 s⁻¹.

Take `CC(C)[C@H](NC(=O)OCc1ccccc1)C(=O)N[C@H](C=O)Cc1ccc(O)cc1` (Cbz-Val-Tyr-aldehyde): the IC50 at Calpain 1 came to 25 nM.

Take `Cc1cc(=O)oc2cc(NC(=O)[C@H](CCCN=C(N)N)NC(=O)[C@H](CC(C)C)NC(=O)OCc3ccccc3)ccc12`: the Ratio in [2] was 105 M⁻¹ s⁻¹. Besides, the k cat in data set [3] worked out at 0.02 s⁻¹.

`CC(C)[C@H](NC(=O)OCc1ccccc1)C(=O)N[C@H](C=O)Cc1cccc2ccccc12` (Cbz-Val-[1Nal]-aldehyde) gave a half-maximal inhibitory concentration (IC50) on Calpain 1 of 100 nM.

With `COc1ccc2cccc(NC(=O)[C@H](CCCN=C(N)N)NC(=O)[C@H](CC(C)C)NC(=O)OCc3ccccc3)c2c1`, the Ratio in data set [2] is 1400 M⁻¹ s⁻¹. In data set [3], this molecule came in with a k cat of 0.52 s⁻¹.

`CCC(C)[C@H](NC(=O)OCc1ccccc1)C(=O)N[C@H](C=O)Cc1ccc(O)cc1` (stereo partly specified) (Cbz-[Ile(3ξ)]-Tyr-aldehyde): inhibition against Calpain 1 was half-maximal at 55 nM (IC50).

In turn, `CC(C)(C)C[C@H](NC(=O)OCc1ccccc1)C(=O)N[C@H](C=O)Cc1ccccc1` (Cbz-[tBuAla]-Phe-aldehyde) returned an IC50 against Calpain 1 of 100 nM.

At Calpain 1, `CC(C)C[C@H](NC(=O)OCc1ccccc1)C(=O)N[C@H](C=O)Cc1ccc(O)cc1` (Cbz-Leu-Tyr-aldehyde) returned a concentration for half-maximal inhibition (IC50) of 20 nM.

`O=C[C@H](Cc1ccccc1)NC(=O)[C@H](Cc1cccc2ccccc12)NC(=O)OCc1ccccc1` (Cbz-[1Nal]-Phe-aldehyde) gave an IC50 on Calpain 1 above 1000 nM.

The molecule `CC(C)[C@H](NC(=O)OCc1ccccc1)C(=O)N[C@H](C=O)CCc1ccccc1` (Cbz-Val-[hPhe]-aldehyde) displayed an IC50 against Calpain 1 of 100 nM.

On Calpain 1, `O=C[C@H](Cc1ccccc1)NC(=O)[C@H](Cc1ccccc1)NC(=O)OCc1ccccc1` (Cbz-Phe-Phe-aldehyde) showed a half-maximal inhibitory concentration (IC50) of 400 nM.

`CC(C)(C)C(NC(=O)OCc1ccccc1)C(=O)N[C@H](C=O)Cc1ccccc1` (stereo partly specified) (Cbz-[ξTle]-Phe-aldehyde) registered a concentration for half-maximal inhibition (IC50) at Calpain 1 of 500 nM.

B1: Calpain-1 catalytic subunit (Homo sapiens), P07384 (protein)
chain: MSEEIITPVYCTGVSAQVQKQRARELGLGRHENAIKYLGQDYEQLRVRCLQSGTLFRDEAFPPVPQSLGYKDLGPNSSKTYGIKWKRPTELLSNPQFIVDGATRTDICQGALGDCWLLAAIASLTLNDTLLHRVVPHGQSFQNGYAGIFHFQLWQFGEWVDVVVDDLLPIKDGKLVFVHSAEGNEFWSALLEKAYAKVNGSYEALSGGSTSEGFEDFTGGVTEWYELRKAPSDLYQIILKALERGSLLGCSIDISSVLDMEAITFKKLVKGHAYSVTGAKQVNYRGQVVSLIRMRNPWGEVEWTGAWSDSSSEWNNVDPYERDQLRVKMEDGEFWMSFRDFMREFTRLEICNLTPDALKSRTIRKWNTTLYEGTWRRGSTAGGCRNYPATFWVNPQFKIRLDETDDPDDYGDRESGCSFVLALMQKHRRRERRFGRDMETIGFAVYEVPPELVGQPAVHLKRDFFLANASRARSEQFINLREVSTRFRLPPGEYVVVPSTFEPNKEGDFVLRFFSEKSAGTVELDDQIQANLPDEQVLSEEEIDENFKALFRQLAGEDMEISVKELRTILNRIISKHKDLRTKGFSLESCRSMVNLMDRDGNGKLGLVEFNILWNRIRNYLSIFRKFDLDKSGSMSAYEMRMAIESAGFKLNKKLYELIITRYSEPDLAVDFDNFVCCLVRLETMFRFFKTLDTDLDGVVTFDLFKWLQLTMFA
Turning to B1, the Km (usually the substrate concentration at which the rate is half of its maximum) in data set [4] amounted to 100 µM; in data set [5] it was 190 µM; in data set [6], 160 µM; in data set [7] it was 370 µM; in [8], 5900 µM; in [9], 460 µM. Further, the Michaelis-Menten constant (Km) in data set [10] worked out at 200 µM.
